Measurements as given in ChEMBL document CHEMBL1134886, “Synthesis of [(2S,3S,4R)-3,4-dihydroxypyrrolidin-2-yl]-5-methylfuran-4-carboxylic acid derivatives: new leads as selective beta-galactosidase inhibitors” (Bioorg Med Chem Lett, 2002).
Active and inactive are the calls of the source. No cut-off for these calls is given here.

Assays:
[1] = target: T1, Beta-galactosidase (Aspergillus niger, UniProt P29853); assay: Inhibitor concentration against Beta-galactosidase from Aspergillus niger
T1 sequence (P29853 whole entry): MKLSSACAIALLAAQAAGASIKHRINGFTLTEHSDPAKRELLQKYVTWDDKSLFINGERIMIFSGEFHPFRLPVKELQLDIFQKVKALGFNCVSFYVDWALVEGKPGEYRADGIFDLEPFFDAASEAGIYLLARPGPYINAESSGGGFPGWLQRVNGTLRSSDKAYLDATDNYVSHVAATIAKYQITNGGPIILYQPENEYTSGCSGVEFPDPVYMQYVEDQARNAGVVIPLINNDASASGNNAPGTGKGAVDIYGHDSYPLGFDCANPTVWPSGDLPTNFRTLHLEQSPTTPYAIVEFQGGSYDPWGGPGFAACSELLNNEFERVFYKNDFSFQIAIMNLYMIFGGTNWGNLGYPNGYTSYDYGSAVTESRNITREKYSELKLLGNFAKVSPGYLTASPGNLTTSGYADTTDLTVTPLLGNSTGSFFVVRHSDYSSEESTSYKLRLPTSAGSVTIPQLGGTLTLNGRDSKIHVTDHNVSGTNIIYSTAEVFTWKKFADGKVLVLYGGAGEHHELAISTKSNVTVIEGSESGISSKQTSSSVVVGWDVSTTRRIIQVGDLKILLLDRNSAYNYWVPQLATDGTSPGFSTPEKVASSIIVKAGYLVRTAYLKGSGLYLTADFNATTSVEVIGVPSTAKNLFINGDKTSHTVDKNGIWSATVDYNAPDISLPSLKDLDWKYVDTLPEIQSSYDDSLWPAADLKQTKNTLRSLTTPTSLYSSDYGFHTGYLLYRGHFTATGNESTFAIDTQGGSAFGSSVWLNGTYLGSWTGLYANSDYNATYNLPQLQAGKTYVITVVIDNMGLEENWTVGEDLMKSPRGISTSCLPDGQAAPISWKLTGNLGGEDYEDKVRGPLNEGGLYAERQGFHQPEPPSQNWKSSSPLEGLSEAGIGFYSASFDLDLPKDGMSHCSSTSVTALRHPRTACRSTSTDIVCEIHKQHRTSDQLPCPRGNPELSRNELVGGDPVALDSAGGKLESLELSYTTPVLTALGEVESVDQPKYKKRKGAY

[2] = test system: Rhizopus; assay: Compound was tested for Percent inhibition of Amyloglucosidases from Rhizopus mold; NI means no inhibition
[3] = target: T2, Beta-galactosidase (Bos taurus) (UniProt Q58D55); assay: Compound was tested for Percent inhibition of Beta-galactosidase from Bovine liver at a dose of 1 mM
T2 sequence (whole entry): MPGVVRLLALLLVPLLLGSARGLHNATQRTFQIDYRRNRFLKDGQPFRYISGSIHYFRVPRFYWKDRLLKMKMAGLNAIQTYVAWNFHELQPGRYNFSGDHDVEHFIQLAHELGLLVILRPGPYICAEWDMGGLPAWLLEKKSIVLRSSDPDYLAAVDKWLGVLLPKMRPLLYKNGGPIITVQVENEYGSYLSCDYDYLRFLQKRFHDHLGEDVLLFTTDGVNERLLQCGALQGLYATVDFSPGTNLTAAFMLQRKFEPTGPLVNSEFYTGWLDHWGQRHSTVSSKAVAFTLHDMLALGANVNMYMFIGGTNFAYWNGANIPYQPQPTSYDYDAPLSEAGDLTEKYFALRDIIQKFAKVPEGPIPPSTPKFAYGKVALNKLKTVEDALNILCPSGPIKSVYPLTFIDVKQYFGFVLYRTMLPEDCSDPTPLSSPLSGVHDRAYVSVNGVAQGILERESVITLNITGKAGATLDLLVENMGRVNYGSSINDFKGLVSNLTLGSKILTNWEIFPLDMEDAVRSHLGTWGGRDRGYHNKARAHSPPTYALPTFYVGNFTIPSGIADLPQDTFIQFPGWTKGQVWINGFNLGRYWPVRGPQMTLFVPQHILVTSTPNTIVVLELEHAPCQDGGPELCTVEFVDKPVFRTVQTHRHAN

[4] = target: T3, Beta-galactosidase (Bos taurus, UniProt Q58D55); assay: Inhibitor concentration against Beta-galactosidase from Bovine liver
T3 sequence (Q58D55 whole entry): T2 sequence (whole entry)

[5] = test system: Canavalia ensiformis; assay: Compound was tested for Percent inhibition of alpha-Mannosidases from Jack beans at a dose of 1 mM
[6] = target: T1, Beta-galactosidase; assay: Inhibition constant(Non competitive) of compound against Beta-galactosidase from Aspergillus niger
[7] = target: Alpha-galactosidase (Coffea arabica) (UniProt Q42656); assay: Compound showed Non competitive inhibition against Alpha-galactosidase from coffee bean; NI means no inhibition at a dose of 1 mM
[8] = test system: Aspergillus niger; assay: Inhibitor concentration against Amyloglucosidases from Aspergillus niger was tested at a dose of 1 mM; NI means no inhibition
[9] = target: T4, Beta-galactosidase (Aspergillus niger) (UniProt P29853); assay: Compound was tested for Percent inhibition of Beta-galactosidase from Aspergillus niger at a dose of 1 mM
T4 sequence (whole entry): T1 sequence (P29853 whole entry)

[10] = test system: Prunus dulcis; assay: Inhibition of alpha-Mannosidases from Almonds was tested at a dose of 1 mM
[11] = target: Beta-galactosidase (Escherichia coli) (UniProt Q8VNN2); assay: Compound was tested for Percent inhibition of Beta-galactosidase from Escherichia coli at a dose of 1 mM
[12] = test system: Prunus dulcis; assay: Inhibitor concentration against alpha-Mannosidases from Almond was tested at a dose of 1 mM; NI means no inhibition
[13] = target: T5, Tissue alpha-L-fucosidase (Homo sapiens) (UniProt P04066); assay: Compound was tested for Percent inhibition of alpha-L-Fucosidase from Human placenta at a dose of 1 mM
T5 sequence (whole entry): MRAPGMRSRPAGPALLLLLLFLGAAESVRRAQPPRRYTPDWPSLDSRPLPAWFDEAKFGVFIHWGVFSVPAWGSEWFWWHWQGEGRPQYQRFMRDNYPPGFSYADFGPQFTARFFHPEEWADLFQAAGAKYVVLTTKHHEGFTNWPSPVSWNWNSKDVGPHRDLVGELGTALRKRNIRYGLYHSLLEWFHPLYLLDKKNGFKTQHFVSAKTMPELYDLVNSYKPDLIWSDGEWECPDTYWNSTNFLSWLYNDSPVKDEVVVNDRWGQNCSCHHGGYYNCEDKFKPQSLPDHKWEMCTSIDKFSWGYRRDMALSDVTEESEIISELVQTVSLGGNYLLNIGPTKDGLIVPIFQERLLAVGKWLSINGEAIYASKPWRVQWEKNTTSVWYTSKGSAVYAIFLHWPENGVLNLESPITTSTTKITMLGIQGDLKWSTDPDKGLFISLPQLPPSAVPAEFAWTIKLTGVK

[14] = target: alpha-galactosidase (Escherichia coli) (UniProt P06720); assay: Inhibitor concentration against alpha-Galactosidase from Escherichia coli was tested at a dose of 1 mM; NI means no inhibition
[15] = target: Alpha-galactosidase (Coffea arabica) (UniProt Q42656); assay: Inhibitor concentration against Alpha-galactosidase from Coffee beans was tested at a dose of 1 mM; NI means no inhibition
[16] = test system: Prunus dulcis; assay: Inhibition of alpha-Mannosidases from Almond was tested at a dose of 1 mM; NI means no inhibition
[17] = test system: Rhizopus; assay: Inhibitor concentration against Amyloglucosidases from Rhizopus mold was tested at a dose of 1 mM; NI means no inhibition
[18] = target: Beta-galactosidase (Escherichia coli) (UniProt Q8VNN2); assay: Inhibitor concentration against Beta-galactosidase from was Escherichia coli tested at a dose of 1 mM; NI means no inhibition
[19] = target: T1, Beta-galactosidase; assay: Inhibitor concentration against Beta-galactosidase from Aspergillus niger was tested at a dose of 1 mM
[20] = target: T4, Beta-galactosidase (Aspergillus niger); assay: Compound was tested for Percent inhibition of Beta-galactosidase from Aspergillus niger; details: concentration not given here
[21] = test system: Prunus dulcis; assay: Inhibitor concentration against alpha-Mannosidases from Almonds was tested at a dose of 1 mM
[22] = target: Beta-galactosidase (Escherichia coli) (UniProt Q8VNN2); assay: Inhibitor concentration against Beta-galactosidase from Escherichia coli was tested at a dose of 1 mM; NI means no inhibition
[23] = target: T4, Beta-galactosidase (Aspergillus niger); assay: Inhibitor concentration against Beta-galactosidase from Aspergillus niger was tested at a dose of 1 mM; NI means no inhibition
[24] = target: Alpha-galactosidase (Coffea arabica) (UniProt Q42656); assay: Compound was tested for Percent inhibition of Alpha-galactosidase from Coffee bean at a dose of 1 mM
[25] = test system: Prunus dulcis; assay: Inhibitor concentration against alpha-Mannosidases from Almond was tested at a dose of 1 mM

Chain of Beta-galactosidase (Escherichia coli) (Q8VNN2 whole entry, looked up): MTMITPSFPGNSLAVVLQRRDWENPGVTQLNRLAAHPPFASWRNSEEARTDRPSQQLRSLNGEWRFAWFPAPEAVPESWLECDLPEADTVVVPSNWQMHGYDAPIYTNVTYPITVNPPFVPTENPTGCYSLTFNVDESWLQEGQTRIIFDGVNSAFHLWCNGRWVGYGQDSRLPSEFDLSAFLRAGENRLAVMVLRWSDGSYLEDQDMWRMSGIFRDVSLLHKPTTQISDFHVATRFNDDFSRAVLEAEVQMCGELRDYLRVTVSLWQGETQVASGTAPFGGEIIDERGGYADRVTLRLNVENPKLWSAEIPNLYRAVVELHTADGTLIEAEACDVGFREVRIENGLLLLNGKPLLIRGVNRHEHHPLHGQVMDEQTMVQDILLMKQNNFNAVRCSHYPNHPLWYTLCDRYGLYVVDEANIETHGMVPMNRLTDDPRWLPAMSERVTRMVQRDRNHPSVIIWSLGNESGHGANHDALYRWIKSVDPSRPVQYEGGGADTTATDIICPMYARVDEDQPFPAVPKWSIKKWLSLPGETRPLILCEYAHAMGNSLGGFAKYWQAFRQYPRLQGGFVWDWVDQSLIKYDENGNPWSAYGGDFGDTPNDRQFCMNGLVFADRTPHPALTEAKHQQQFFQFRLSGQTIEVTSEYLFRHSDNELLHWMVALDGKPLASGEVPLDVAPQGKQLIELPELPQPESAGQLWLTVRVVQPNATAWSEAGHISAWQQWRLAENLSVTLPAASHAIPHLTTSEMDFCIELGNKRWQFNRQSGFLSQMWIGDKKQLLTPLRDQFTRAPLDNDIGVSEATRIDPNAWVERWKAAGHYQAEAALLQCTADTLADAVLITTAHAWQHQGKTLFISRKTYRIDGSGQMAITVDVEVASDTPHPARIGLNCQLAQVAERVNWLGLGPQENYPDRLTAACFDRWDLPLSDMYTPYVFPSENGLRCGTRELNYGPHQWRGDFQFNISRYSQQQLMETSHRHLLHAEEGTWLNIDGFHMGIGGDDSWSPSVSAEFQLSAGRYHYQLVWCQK
Chain of Alpha-galactosidase (Coffea arabica) (Q42656 whole entry, looked up): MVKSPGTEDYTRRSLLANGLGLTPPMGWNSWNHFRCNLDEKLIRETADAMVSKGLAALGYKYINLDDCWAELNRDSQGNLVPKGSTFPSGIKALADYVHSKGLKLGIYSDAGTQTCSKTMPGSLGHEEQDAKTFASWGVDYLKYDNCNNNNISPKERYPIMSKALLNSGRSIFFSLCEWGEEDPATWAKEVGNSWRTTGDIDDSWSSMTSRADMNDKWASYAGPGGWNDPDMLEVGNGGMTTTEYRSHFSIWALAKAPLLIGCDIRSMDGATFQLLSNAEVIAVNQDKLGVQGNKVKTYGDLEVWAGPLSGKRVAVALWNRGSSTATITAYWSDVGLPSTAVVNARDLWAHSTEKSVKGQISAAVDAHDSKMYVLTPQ
Chain of alpha-galactosidase (Escherichia coli) (P06720 whole entry, looked up): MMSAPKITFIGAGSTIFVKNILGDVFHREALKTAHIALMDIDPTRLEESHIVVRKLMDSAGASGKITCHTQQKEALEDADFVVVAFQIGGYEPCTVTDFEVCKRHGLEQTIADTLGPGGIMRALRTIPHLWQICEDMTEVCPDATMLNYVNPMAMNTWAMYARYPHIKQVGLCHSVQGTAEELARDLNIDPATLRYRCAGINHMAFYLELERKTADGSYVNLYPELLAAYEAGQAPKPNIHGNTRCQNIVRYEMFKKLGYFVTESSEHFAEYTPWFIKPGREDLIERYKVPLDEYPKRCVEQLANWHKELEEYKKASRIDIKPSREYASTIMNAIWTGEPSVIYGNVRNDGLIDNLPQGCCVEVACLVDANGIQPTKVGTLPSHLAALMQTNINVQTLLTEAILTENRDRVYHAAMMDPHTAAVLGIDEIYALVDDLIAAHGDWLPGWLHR

SMILES | inhibition [2] | inhibition [3] | IC50 [4] | inhibition [5] | inhibition [8] | inhibition [9] | inhibition [11] | inhibition [13] | inhibition [22] | also measured
Cc1oc([C@H]2NC[C@@H](O)[C@H]2O)cc1C(=O)NC(C)C | – | 49% | 1000 µM | – | inactive | – | – | 39% | – | inhibition [17]: inactive; inhibition [18]: inactive; IC50 [19]: 250 µM; inhibition [20]: 79%
Cc1oc([C@@H]2NC[C@@H](O)[C@H]2O)cc1C(=O)NC(C)C | – | 38% | – | – | 23% | – | – | – | inactive | inhibition [23]: inactive; inhibition [24]: 29%; inhibition [25]: 9%

Now from value to molecule, other results behind:

inhibition [2] | inhibition [3] | IC50 [4] | inhibition [5] | inhibition [8] | inhibition [9] | inhibition [11] | inhibition [13] | inhibition [22] | SMILES | also measured
inactive | 90% | 42 µM | 37% | inactive | 96% | 33% | – | – | CCN(CC)C(=O)c1cc([C@H]2NC[C@@H](O)[C@H]2O)oc1C | IC50 [1]: 28 µM; Ki [6]: 30 µM; inhibition [7]: No inhibition; inhibition [10]: 38%
– | 57% | – | 38% | inactive | 80% | – | 76% | – | CCOC(=O)c1cc([C@@H]2NC[C@@H](O)[C@H]2O)oc1C | inhibition [12]: inactive; inhibition [14]: inactive
inactive | 78% | – | 49% | inactive | 99% | 83% | – | – | CCOC(=O)c1cc([C@H]2NC[C@@H](O)[C@H]2O)oc1C | Ki [15]: Not Active; inhibition [16]: 37%
– | 58% | – | 27% | inactive | – | – | 91% | inactive | CCN(CC)C(=O)c1cc([C@@H]2NC[C@@H](O)[C@H]2O)oc1C | inhibition [21]: 31%
